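Exposure lasted 48 hours, with cells grown in 96-well plates and compounds tested at five concentrations. At the GI50, growth is halved.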 Activity calls are given as the source filed them. No stated cut-off is given here; in the data, active = GI50 up to about 1.1 µM and inactive = higher. Some results are limits rather than exact numbers.

Some test systems named below: CAKI-1; DU-145; EKVX; HOP-62; LOX IMVI; M14; MDA-MB-435; Malme-3M; NCI-H522; NCI/ADR-RES; OVCAR-3; OVCAR-5; SNB-19; SW-620; U-251; UACC-257; UACC-62; HOP-92; SF-539; SNB-75.
Common to all, as to assay: inhibition of tumour cell growth, NCI panel, 48 h

As for `Nc1ccc(Oc2ccc(C34CC5CC(C3)CC(c3ccc(Oc6ccc(N)cc6C(F)(F)F)cc3)(C5)C4)cc2)c(C(F)(F)F)c1`, the GI50 in the assay on CAKI-1 is 28.1 µM (inactive); in the assay with DU-145 it was 35.2 µM (inactive); in the assay on EKVX, 15.5 µM (inactive); with HOP-62, 18.2 µM (inactive); with LOX IMVI it was 17.9 µM (inactive); with M14, 16.9 µM (inactive). In addition, the GI50 in the assay on MDA-MB-435 is 24.2 µM (inactive); with Malme-3M, 22.2 µM (inactive); in the assay on NCI-H522, 14.4 µM (inactive); in the assay with NCI/ADR-RES it was 21.7 µM (inactive); in the assay on OVCAR-3 it was 17.9 µM (inactive); with OVCAR-5 it was 27 µM (inactive). The GI50 in the assay on SNB-19 is 22.5 µM (inactive); with SW-620, 36.3 µM (inactive); in the assay with U-251, 14.5 µM (inactive); in the assay with UACC-257, 18.7 µM (inactive); with UACC-62, 22.1 µM (inactive).

As for `Cc1cn2cc(-c3cccs3)nc2s1`, the GI50 was > 100 µM (inactive) with CAKI-1; > 40.4 µM (inactive) in the assay on DU-145; > 65.8 µM (inactive) in the assay on EKVX; > 100 µM (inactive) in the assay with HOP-62; > 71.8 µM (inactive) in the assay with HOP-92; > 45.9 µM (inactive) in the assay on LOX IMVI. Besides, the GI50 in the assay on M14 was > 78.3 µM (inactive); with MDA-MB-435, > 100 µM (inactive); in the assay on Malme-3M, > 100 µM (inactive); in the assay on NCI-H522 it was > 100 µM (inactive); with OVCAR-3 it was > 100 µM (inactive); with OVCAR-5 it was > 100 µM (inactive). Further, the GI50 is > 100 µM (inactive) in the assay with SF-539; > 100 µM (inactive) in the assay on SNB-19; > 100 µM (inactive) in the assay with SNB-75; > 100 µM (inactive) in the assay on SW-620; > 100 µM (inactive) in the assay on U-251; > 85.9 µM (inactive) in the assay on UACC-257. Besides, in the assay with UACC-62, the GI50 was > 100 µM (inactive).

For the compound `CO/N=C(\C(=O)Nc1cncs1)c1csc(NC(c2ccccc2)(c2ccccc2)c2ccccc2)n1`, the GI50 is > 10 µM (inactive) in the assay with CAKI-1; > 10 µM (inactive) in the assay with DU-145; 6.12 µM (inactive) in the assay with EKVX; > 10 µM (inactive) in the assay on HOP-62; > 10 µM (inactive) with HOP-92; 7.21 µM (inactive) with LOX IMVI. Moreover, the GI50 in the assay on M14, in the assay with Malme-3M, in the assay with NCI-H522, in the assay on NCI/ADR-RES, in the assay with OVCAR-3 and in the assay with OVCAR-5 was > 10 µM (inactive) each time. In addition, the GI50 was 0.628 µM (active) in the assay on SF-539; > 10 µM (inactive) with SNB-19; 9.95 µM (inactive) in the assay with SNB-75; > 10 µM (inactive) in the assay on SW-620; > 10 µM (inactive) in the assay with U-251; > 10 µM (inactive) in the assay with UACC-257.

In the case of `CC(C)(C)c1cc(-c2cc(C(C)(C)C)[nH]n2)[nH]n1`, the GI50 was > 100 µM (inactive) with CAKI-1; > 100 µM (inactive) in the assay on DU-145; > 100 µM (inactive) in the assay with EKVX; > 100 µM (inactive) in the assay on HOP-62; > 100 µM (inactive) in the assay on HOP-92; 93.3 µM (inactive) with LOX IMVI. Also, the GI50 in the assay with M14, in the assay on MDA-MB-435, in the assay with Malme-3M, with NCI-H522, in the assay on OVCAR-3 and with OVCAR-5 was > 100 µM (inactive) each time. The GI50 in the assay on SF-539, in the assay with SNB-19, in the assay on SW-620, in the assay on U-251, with UACC-257 and in the assay with UACC-62 was > 100 µM (inactive) throughout.

Regarding `S=c1c2cn[nH]c2nc2scc(-c3ccc(Cl)cc3)n12`, the GI50 is 9.59 µM (inactive) in the assay on CAKI-1; 17.3 µM (inactive) in the assay on EKVX; 16.9 µM (inactive) with HOP-62; 11.3 µM (inactive) with LOX IMVI; 17 µM (inactive) in the assay with M14; 3.78 µM (inactive) in the assay with MDA-MB-435. Moreover, the GI50 in the assay with Malme-3M was 22.2 µM (inactive); in the assay on NCI-H522 it was 24.9 µM (inactive); in the assay on NCI/ADR-RES, 13.8 µM (inactive); in the assay with OVCAR-3, 20.1 µM (inactive); with OVCAR-5, 14.3 µM (inactive); with SF-539, 17.7 µM (inactive). Moreover, the GI50 is 23.6 µM (inactive) in the assay on SNB-19; 13.9 µM (inactive) in the assay on SNB-75; 9.04 µM (inactive) in the assay with SW-620; 12.9 µM (inactive) in the assay with U-251; 54.6 µM (inactive) in the assay on UACC-257; 16.3 µM (inactive) with UACC-62.

With `COc1ccc(C2SC(C)C(=O)N2c2nc(-c3nc(-c4ccc(Cl)cc4)cs3)cs2)cc1` (centres undefined), the GI50 with CAKI-1, with EKVX, in the assay on HOP-62, with HOP-92, in the assay with LOX IMVI and in the assay with M14 was > 100 µM (inactive) each time. In addition, the GI50 with MDA-MB-435, in the assay with Malme-3M, with NCI-H522, in the assay with NCI/ADR-RES, in the assay with OVCAR-3 and in the assay on OVCAR-5 was > 100 µM (inactive) in each case. The GI50 was > 100 µM (inactive) in the assay on SF-539; > 100 µM (inactive) with SNB-19; > 100 µM (inactive) in the assay on SNB-75; > 100 µM (inactive) in the assay with SW-620; 84.7 µM (inactive) in the assay with U-251; > 100 µM (inactive) with UACC-257. Moreover, the GI50 with UACC-62 was > 100 µM (inactive).

`CCN(CC)CCCC(C)NC(=O)c1ccc2c(c1)C(=O)c1ccccc1C2=O` (centres undefined): the GI50 with CAKI-1 was 25.9 µM (inactive); with EKVX it was 21.3 µM (inactive); in the assay on HOP-62, 27.2 µM (inactive); with HOP-92 it was 24.4 µM (inactive); with LOX IMVI, 15.9 µM (inactive); with M14 it was 18.1 µM (inactive). The GI50 is 12.9 µM (inactive) with Malme-3M; 18.9 µM (inactive) in the assay on NCI-H522; 7.74 µM (inactive) in the assay on OVCAR-3; 18.9 µM (inactive) with OVCAR-5; 19.2 µM (inactive) with SF-539; 21.6 µM (inactive) in the assay with SNB-19. The GI50 in the assay with SNB-75 was 48.2 µM (inactive); in the assay with SW-620 it was 13.6 µM (inactive); with U-251, 20.1 µM (inactive); in the assay with UACC-257, 11.9 µM (inactive); in the assay with UACC-62, 20.5 µM (inactive).

`Cc1ccc(O)cc1.Cc1cccc(O)c1.Cc1ccccc1O` [CRESOL]: the GI50 with CAKI-1, in the assay on DU-145, in the assay on EKVX, with HOP-62, in the assay on LOX IMVI and with M14 was > 100 µM (inactive) in each case. Besides, the GI50 in the assay on MDA-MB-435 is > 100 µM (inactive); in the assay on Malme-3M it was 8.61 µM (inactive); with NCI-H522, 8.34 µM (inactive); in the assay with NCI/ADR-RES, > 100 µM (inactive); in the assay on OVCAR-3, > 100 µM (inactive); in the assay with OVCAR-5 it was > 100 µM (inactive). In addition, the GI50 was > 100 µM (inactive) in the assay on SF-539; > 100 µM (inactive) in the assay on SNB-19; > 100 µM (inactive) in the assay with SW-620; > 100 µM (inactive) with U-251; > 100 µM (inactive) with UACC-257; 88.3 µM (inactive) in the assay with UACC-62.
